Results from patent publication US11952384B2, “Anti-tumor compound and preparation method and use thereof” (DUALITY BIOLOGICS (SUZHOU) CO., LTD., priority 2020, dated 2024).
Like-named read-outs stand apart in the source and are kept apart here. One block for each compound: values may come before it.

What was measured:
[1] = tested on: JIMT-1 cells; assay: Inhibition of in vitro proliferation of tumor cells by compounds (CTG, 6 days); type: cell-based
Description: (§1) To test the inhibitory activity of the pharmaceutical compounds on the in vitro proliferation of NCI-N87, JIMT-1 and MBA-MB-231 tumor cells. The cells were treated with the compounds at different concentrations in vitro, and after 6 days of culture, the proliferation of cells was detected using the CTG (CellTiter-Glo® Luminescent Cell Viability Assay, Promega, Cat. No. G7558) reagent, and the in vitro activity of the compounds was evaluated according to the IC50 value.
(§2) In the following, the test for the inhibition of the in vitro proliferation of NCI-N87 cells was taken as an example to illustrate the method of the present application for testing the inhibitory activity of the compounds of the present application on the in vitro proliferation of tumor cells. The method was also applicable to, but not limited to, the test for the inhibitory activity on the in vitro proliferation of other tumor cells. • 1. Culturing of cells: NCI-N87 cells were cultured in RPMI-1640 medium containing 10% FBS. • 2. Preparation of cells: NCI-N87 cells in logarithmic phase were taken, washed with PBS once, and digested with 2-3 mL of trypsin for 2-3 min. After the cells were digested completely, 10-15 mL of cell culture was added to elute the digested cells. The eluate was centrifuged at 1000 rpm for 5 min, and the supernatant was discarded. The resulting cells were resuspended in 10-20 mL of cell culture to obtain a single cell suspension. • 3. Cell plating: the NCI-N87 single cell suspension was mixed well and adjusted to a viable cell density of 6×10^4 cells/mL with cell culture. The cell suspension with the adjusted density was mixed well and added to a 96-well cell culture plate at 50 μL/well. The culture plate was incubated in an incubator for 18 h (37° C., 5% CO2). • 4. Preparation of compounds: the compounds were dissolved in DMSO to obtain stock solutions at an initial concentration of 10 mM. There were 8 concentrations in total for the small molecule compounds: 300 nM, 100 nM, 30 nM, 10 nM, 3 nM, 1 nM, 0.3 nM, and 0.1 nM. • 5. Sample adding: the prepared samples to be detected at different concentrations were added to the culture plate, and two duplicate wells were set for each sample. The culture plate was incubated in an incubator for 6 days (37° C., 5% CO2). • 6. Color developing: the 96-well cell culture plate was taken out, added with the CTG reagent at 50 μL/well, and incubated at room temperature for 10 min. • 7. Plate reading: the 96-well cell culture plate was taken out, placed in a microplate reader, and measured for the chemiluminescence using the microplate reader. Data Analysis
(§3) Data were processed and analyzed using Microsoft Excel and Graphpad Prism 5.
(§4) To test the inhibitory activity of the pharmaceutical compounds on the in vitro proliferation of NCI-N87, JIMT-1 and MBA-MB-231 tumor cells. The cells were treated with compounds at different concentrations in vitro, and after 6 days of culture, the proliferation of cells was detected using CTG (CellTiter-Glo® Luminescent Cell Viability Assay, Promega, Cat. No. G7558) reagents, and the in vitro activity of the compounds was evaluated according to the IC50 value. • 1. Culturing of cells: NCI-N87/JIMT-1/MBA-MB-231 cells were cultured in RPMI-1640 medium containing 10% FBS. • 2. Preparation of cells: NCI-N87/JIMT-1/MBA-MB-231 cells in logarithmic phase were taken, washed with PBS once, and digested with 2-3 mL of trypsin for 2-3 min. After the cells were digested completely, 10-15 mL of cell culture was added to elute the digested cells. The eluate was centrifuged at 1000 rpm for 5 min, and the supernatant was discarded. The resulting cells were resuspended in 10-20 mL of cell culture to obtain a single cell suspension. • 3. Cell plating: the NCI-N87/JIMT-1/MBA-MB-231 single cell suspension was mixed well and adjusted to a viable cell density of 6×10^4 cells/mL with cell culture. […]

[2] = biological target: T1, BCRP (Homo sapiens, UniProt Q9UNQ0)
T1 sequence (Q9UNQ0 1-655): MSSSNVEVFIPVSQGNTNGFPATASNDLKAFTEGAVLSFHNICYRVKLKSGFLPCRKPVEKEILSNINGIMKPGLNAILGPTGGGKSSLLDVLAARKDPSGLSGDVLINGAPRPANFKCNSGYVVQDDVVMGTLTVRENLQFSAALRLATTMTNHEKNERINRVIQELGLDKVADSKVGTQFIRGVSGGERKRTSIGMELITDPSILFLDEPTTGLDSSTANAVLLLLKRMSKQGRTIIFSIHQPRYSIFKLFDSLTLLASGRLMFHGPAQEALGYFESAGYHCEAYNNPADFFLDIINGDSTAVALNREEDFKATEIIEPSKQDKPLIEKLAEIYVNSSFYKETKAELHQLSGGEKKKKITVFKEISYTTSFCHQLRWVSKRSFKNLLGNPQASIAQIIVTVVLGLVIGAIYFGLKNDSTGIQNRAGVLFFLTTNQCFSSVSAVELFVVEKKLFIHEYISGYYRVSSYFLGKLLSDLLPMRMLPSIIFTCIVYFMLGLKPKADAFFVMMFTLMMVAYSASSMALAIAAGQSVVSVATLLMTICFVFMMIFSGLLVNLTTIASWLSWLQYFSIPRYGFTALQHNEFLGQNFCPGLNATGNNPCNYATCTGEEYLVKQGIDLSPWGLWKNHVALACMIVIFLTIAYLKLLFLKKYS
Description: (§5) To investigate whether the compounds of the present invention is a substrate for efflux transporters P-gp and BCRP in a Caco-2 cell model, thereby providing preclinical basis for analyzing the drug-drug interaction in pharmacokinetics.
(§6) • 1) Cell culture medium was added to each well of the Transwell. The HTS Transwell plate was incubated under conditions of 37° C. and 5% CO2 for 1 h prior to cell inoculation. • 2) Caco-2 cells were diluted with culture medium and the cell suspension was dispensed into filter wells of the 96-well HTS Transwell plate. […] The cell culture medium was changed periodically. • 3) Monolayer cell resistance was measured using the Millicell Epithelial Volt-Ohm detection system. The resistance of each well was recorded. After all wells were measured, the Transwell plate was put back into the incubator. TEER of each well was calculated according to the formula. The TEER value of each well should be greater than 230 ohm·cm^2. […] Preparation for Transporter Test • 1) The Caco-2 plate was taken out from the incubator. The monolayer cells were washed with pre-heated HBSS twice. The plate was then incubated at 37° C. for 30 min. • 2) Stock solutions of the compounds were prepared in DMSO and diluted with HBSS to obtain working solutions. Digoxin was used as a reference substrate for P-gp and rosuvastatin was used as a reference substrate for BCRP. Propranolol was used as a high permeability marker. • 3) The working solution (without inhibitor) was added to the Transwell insert (apical compartment) to determine the rate of drug transport in the apical to basolateral direction. The transfer buffer was added to the wells in the receiver plate (basolateral compartment). The working solution (without inhibitor) was added to the receiver plate wells (basolateral compartment) to determine the rate of drug transport in the basolateral to apical direction. The Transwell insert (apical compartment) was filled with the transport buffer. PSC833 was added to the apical and basolateral compartments to determine the rate of drug transport in the presence of P-gp inhibitors. • 4) The sample was transferred from the working solution to the quenching solution, and a sample with a time of 0 was prepared. The Transwell plate was incubated under conditions of 37° C. and 5% CO2 for 2 h. • 5) At the end of the transport cycle, the samples were transferred from the apical and basolateral wells into a new 96-well plate. Cold acetonitrile or methanol containing the appropriate internal standard (IS) was added to each well of the plate. The plate was vortexed for 10 min. The samples were centrifuged. The supernatant of an aliquot was mixed with an appropriate amount of ultrapure water (depending on the LC-MS/MS signal response and peak shape) prior to the LC-MS/MS analysis. • 6) The stock solution of lucifer yellow in DMSO was prepared and diluted with HBSS to determine the amount of lucifer yellow leakage after a 2-hour transport period. The lucifer yellow solution was added to the apical compartment. HBSS was added to the basolateral compartment. The plate was incubated at 37° C. for 30 min, and a certain amount of the solution was directly taken from the apical and basolateral wells and transferred to a new 96-well plate. The lucifer yellow fluorescence was measured in a fluorescence plate reader with 485 nm excitation and 530 nm emission (to monitor monolayer integrity).
(§7) Data were calculated using Microsoft Excel. The percentage of the compound remaining at each time point was estimated by determining the peak area ratio from the extracted ion chromatogram.
(§8) For drug transport analysis in the Caco-2 cell model, the apparent permeability coefficient (Papp) can be calculated according to the following formula, in cm/s:
(§9) [formula] • wherein the concentration C is in nM, the volume V is in μL, the time T is in s, and the area S is in cm^2.
(§10) The recovery rate is calculated according to the following formula:

[3] = biological target: T1, BCRP; assay: in vitro; settings: for efflux ratio at 2 h: Caco-2; for Papp A→B at 2 h: Caco-2, Papp (A-B) (10^−6, cm/s); for Papp B→A at 2 h: Caco-2, Papp (B-A) (10^−6, cm/s)
Description: as §5, §6, §7, §8, §9, §10

[4] = tested on: NCI-N87 cells; assay: Inhibition of in vitro proliferation of tumor cells by compounds (CTG, 6 days); type: cell-based; settings: Homo sapiens, NCI-N87, 144 h, read-out: NCI-N87 IC50 (nM)
Description: as §1, §2, §3, §4

[5] = biological target: T1, BCRP; assay: Study on transporter substrates in Caco-2 cell model; settings: human, Caco-2
Description: as §5, §6, §7, §8, §9, §10

[6] = Homo sapiens, JIMT-1, 144 h, read-out: JIMT-1 IC50 (nM)

SMILES: CC[C@@]1(O)C(=O)OCc2c1cc1n(c2=O)Cc2c-1nc1cc(F)c(C)c3c1c2[C@@H](NC(=O)CCO)CC3 [compound 3, N-((1S,9S)-9-ethyl-5-fluoro-9-hydroxy-4-methyl-10,13-dioxo-2,3,9,10,13,15-hexahydro-1H,12H-benzo[de]pyrano[3′,4′:6,7]indolizino[1,2-b]quinolin-1-yl)-3-hydroxypropanamide, reference compound]
IC50 ([1]; Homo sapiens, JIMT-1, 144 h, Table 3, Test Example 2.3, small molecule fragments, 6 days of culture, CTG, read-out: JIMT-1 IC50): 81.2 nM

SMILES: CC[C@@]1(O)C(=O)OCc2c1cc1n(c2=O)Cc2c-1nc1cc(F)c(C)c3c1c2[C@@H](NC(=O)C1CCCC(O)C1)CC3 (stereo partly drawn) [P-II-22, N-((1S,9S)-9-ethyl-5-fluoro-9-hydroxy-4-methyl-10,13-dioxo-2,3,9,10,13,15-hexahydro-1H,12H-benzo[de]pyrano[3′,4′:6,7]indolizino[1,2-b]quinolin-1-yl)-3-hydroxycyclohexane-1-carboxamide]
IC50 [1, 6]: 3.2 nM

SMILES: CC[C@@]1(O)C(=O)OCc2c1cc1n(c2=O)Cc2c-1nc1cc(F)c(C)c3c1c2[C@@H](NC(=O)CCN)CC3 [compound 2, N-((1S,9S)-9-ethyl-5-fluoro-9-hydroxy-4-methyl-10,13-dioxo-2,3,9,10,13,15-hexahydro-1H,12H-benzo[de]pyrano[3′,4′:6,7]indolino[1,2-b]quinolin-1-yl)-3-aminopropionamide, reference compound]
IC50 ([1]; Table 3, Test Example 2.3, small molecule fragments, 6 days of culture, CTG, read-out: JIMT-1 IC50): 36.2 nM

BCRP substrate ([2]; Caco-2): No
efflux ratio at 2 h [3]: 1.09
Papp A→B at 2 h [3]: 17.3 ×10⁻⁶ cm/s
Papp B→A at 2 h [3]: 18.9 ×10⁻⁶ cm/s
recovery at 2 h ([3]; Caco-2, Recovery rate (%) AP-BL): 62.2%
recovery at 2 h ([3]; Caco-2, Recovery rate (%) BL-AP): 82.4%
SMILES: CC(C)NCC(O)COc1cccc2ccccc12 (centres unmarked) [Propranolol]

SMILES: CCCC(O)CC(=O)N[C@H]1CCc2c(C)c(F)cc3nc4c(c1c23)Cn1c-4cc2c(c1=O)COC(=O)[C@]2(O)CC (stereo partly drawn) [P-III-27, N-((1S,9S)-9-ethyl-5-fluoro-9-hydroxy-4-methyl-10,13-dioxo-2,3,9,10,13,15-hexahydro-1H,12H-benzo[de]pyrano[3′,4′:6,7]indolizino[1,2-b]quinolin-1-yl)-3-hydroxyhexanamide]
IC50 [4]: 3 nM

SMILES: CC[C@@]1(O)C(=O)OCc2c1cc1n(c2=O)Cc2c-1nc1cc(F)c(C)c3c1c2[C@@H](NC(=O)C1(O)CCC1)CC3 [compound 1, N-((1S,9S)-9-ethyl-5-fluoro-9-hydroxy-4-methyl-10,13-dioxo-2,3,9,10,13,15-hexahydro-1H,12H-benzo[de]pyrano[3′,4′:6,7]indolizino[1,2-b]quinolin-1-yl)-1-hydroxycyclobutane-1-carboxamide, reference compound]
IC50 ([1]; Homo sapiens, JIMT-1, 144 h, Table 2 (untitled), Test Example 2.2, small molecule fragments, 6 days of culture, CTG, read-out: JIMT-1 IC50): 23.1 nM

BCRP substrate ([2]; Caco-2): Yes
Papp (A-B) (10^−6, cm/s) ([2]; Caco-2): 0.45 10^−6, cm/s
Papp (B-A) (10^−6, cm/s) ([2]; Caco-2): 3.15 10^−6, cm/s
Efflux ratio ([2]; human, Caco-2, 2 h): 6.96
recovery at 2 h ([5]; Caco-2, Recovery rate (%) AP-BL, KO143 −): 98.5%
recovery at 2 h ([5]; Caco-2, Recovery rate (%) BL-AP, KO143 −): 96.8%
recovery at 2 h ([5]; Caco-2, with KO143 (concentration not stated), Recovery rate (%) AP-BL, KO143 +): 95.8%
recovery at 2 h ([5]; Caco-2, with KO143 (concentration not stated), Recovery rate (%) BL-AP, KO143 +): 97.1%
efflux ratio at 2 h [3]: 81.2
Papp A→B at 2 h [3]: 0.12 ×10⁻⁶ cm/s
Papp B→A at 2 h [3]: 9.52 ×10⁻⁶ cm/s
SMILES: CC(C)c1nc(N(C)S(C)(=O)=O)nc(-c2ccc(F)cc2)c1/C=C/[C@@H](O)C[C@@H](O)CC(=O)O [Rosuvastatin, rosuvastatin, reference compound]

SMILES: CC[C@@]1(O)C(=O)OCc2c1cc1n(c2=O)Cc2c-1nc1cc(F)c(C)c3c1c2[C@@H](NC(=O)CCS)CC3 [P-III-2, N-((1S,9S)-9-ethyl-5-fluoro-9-hydroxy-4-methyl-10,13-dioxo-2,3,9,10,13,15-hexahydro-1H,12H-benzo[de]pyrano[3′,4′:6,7]indolizino[1,2-b]quinolin-1-yl)-3-mercaptopropanamide]
IC50 [1, 6]: 108 nM
IC50 [4]: 108 nM

SMILES: CC[C@@]1(O)C(=O)OCc2c1cc1n(c2=O)Cc2c-1nc1cc(F)c(C)c3c1c2[C@@H](NC(=O)CC(=O)CO)CC3 [P-III-22, N-((1S,9S)-9-ethyl-5-fluoro-9-hydroxy-4-methyl-10,13-dioxo-2,3,9,10,13,15-hexahydro-1H,12H-benzo[de]pyrano[3′,4′:6,7]indolizino[1,2-b]quinolin-1-yl)-4-hydroxy-3-oxobutanamide]
IC50 [1, 6]: 12.5 nM

SMILES: CC[C@@]1(O)C(=O)OCc2c1cc1n(c2=O)Cc2c-1nc1cc(F)c(C)c3c1c2[C@@H](NC(=O)C(C)C(C)O)CC3 (stereo partly drawn) [compound 4, N-((1S,9S)-9-ethyl-5-fluoro-9-hydroxy-4-methyl-10,13-dioxo-2,3,9,10,13,15-hexahydro-1H,12H-benzo[de]pyrano[3′,4′:6,7]indolizino[1,2-b]quinolin-1-yl)-3-hydroxy-2-methylbutanamide, reference compound]
IC50 [1, 6]: 32.3 nM
